Assay results from patent US20240316513A1, “METHOD AND APPARATUS FOR ON-SITE PREPARATION AND DOSING OF AN ENZYME-CONTAINING DETERGENT FORMULATION” (CHRISTEYNS, priority 2021, published 2024).

molecular target: T1, lipase enzyme (Thermomyces lanuginosus, UniProt O59952, N255R/T253R); test: Total hydrolysis of rapeseed oil in a wash process: effect of surfactants on lipase enzyme activity (free oleic acid by HPLC); type: biochemical; settings: about 100 ppm by weight surfactant; about 0.2 g/litre lipase concentrate; pH about 9.6; about 50° C.; 2° fH; compared with blank and LES (Sample C)
T1 construct: purchased Novozymes LIPEX 100 L
T1 sequence (O59952 23-291 T253R/N255R): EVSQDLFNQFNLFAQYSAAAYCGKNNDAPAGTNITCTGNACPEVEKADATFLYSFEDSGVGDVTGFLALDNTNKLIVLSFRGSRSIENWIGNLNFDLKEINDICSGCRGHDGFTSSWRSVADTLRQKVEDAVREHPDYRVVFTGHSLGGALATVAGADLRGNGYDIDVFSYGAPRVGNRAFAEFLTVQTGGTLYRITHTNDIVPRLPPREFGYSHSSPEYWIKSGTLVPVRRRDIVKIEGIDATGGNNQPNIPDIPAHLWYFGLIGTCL
Protocol: (§1) The total hydrolysis of rapeseed oil in a wash process was tested with washing liquors that were always comprising the same concentration of a lipase enzyme concentrate. A blank test was performed without any added surfactant. This blank test served as the reference with which could be compared the other results obtained with the same washing liquor samples into which one of a number of different non-ionic surfactants were added.
In the experiments, the lipase concentrate was always present in a concentration of about 0.2 gram of the concentrate per litre of total liquor.
The washing tests were performed at a temperature of about 50° C. The water in the formulations was demineralised water obtained by reverse osmosis (RO).
Different washing liquors were prepared containing about 100 ppm by weight of a selected surfactant, to be compared with a blank liquor containing only the lipase enzyme concentrate and no surfactants.
(§2) For each liquor was tested the appearance of free oleic acid generated from the hydrolysis of a standard amount of rapeseed oil with which the liquor was brought in contact. Monitored by High Performance Liquid Chromatography (HPLC) was the quantitative release of free oleic acid (C18:1 fatty acid) in the washing liquor and/or present on the textile, as explained in the protocols that are described in detail in our copending patent application having the attorney docket reference PAT2549761 EP00 and filed on the same day as this application. Because oleic acid is the main fatty acid in the triglycerides of rapeseed oil, the generation of this acid as free fatty acid it is an excellent quantitative marker for the hydrolysis of rapeseed oil, in this context thus also for the activity of the lipase enzyme.
A series of tests were performed using washing liquors having a hardness of 2° fH. […] For each surfactant choice 2 duplicate samples were tested, except for Sample J (3 duplicates) and Sample K (only 1 sample tested). […] Also shown for each bar with a surfactant is an error bar showing the difference between the lowest and the highest of the duplicates.

Substance	effect of the surfactant on lipase activity in the washing liquor (in words)
5EO-C13-C15 [M]	relatively benign
9EO-isoC13 [G]	not better than the conventional LES surfactant
7EO-isoC13 [F]	not better than the conventional LES surfactant
C8-C10 alkyl polyglucoside (APG) with an average degree of polymerisation (DP) of 1.5	much lower depressing effect
C12-C14 amine oxide [P]	significant boost
7EO-C13-15 [N]	much larger depressing effect
10EO-isoC13 [H]	not better than the conventional LES surfactant
5EO-isoC13	not better than the conventional LES surfactant
isotridecyl alcohol ethoxylated to an average degree of ethoxylation of about 3	not better than the conventional LES surfactant
a mixture of linear C13-C15 alcohol that has been ethoxylated to an average degree of about 3	relatively benign
C8-C16 APG-DP of 1.5 [Sample J]	much lower depressing effect
C8-C10 APG-DP of 1.7 [Sample K]	much lower depressing effect
C9-C11 fatty alcohol alkoxylated with an average ethoxylation degree of about 6 and an average propoxylation degree of about 4 [Sample O]	worse than the LES reference

same assay, conditions: about 100 ppm by weight surfactant; about 0.2 g/litre lipase concentrate; pH about 9.6; about 50° C.; hardness 2° fH

Substance	lipase activity relative to the blank liquor (A), set at 100%
Lauryl ether sulphate [Sample C]	about 40%
Linear Alkyl Benzene Sulphonate [Sample B]	12%

molecular target: T1, lipase enzyme; test: Effect of surfactant concentration on lipase activity in the washing liquor; type: biochemical; settings: not given
Protocol: as §1, §2
Extra experiments were performed with 5EO-isoC13 surfactant.

Substance	surfactant concentration at which the suppressing activity on lipase becomes noticeable	surfactant concentration until which the suppressing effect further grows
5EO-isoC13	10 ppm by weight	about 100 ppm by weight

same assay, conditions: from about 100 up to 250 ppm by weight surfactant

Substance	suppressing effect when further increasing the surfactant presence
5EO-isoC13	remains about the same
